The target in series [1] is T1, Transient receptor potential cation channel subfamily V member 4 (Homo sapiens, UniProt Q9HBA0). Nature of the series: Antagonist activity at human TRPV4 expressed in CHOK1 cells assessed as inhibition of PF-04674114/GSK1016790A-induced changes in intracellular calcium level measured for 5 mins by FLIPR assay. The series is classed as cell-based, CHO-K1. A general note: Calcium flux is commonly read through the fluorescence of an indicator in the cells.

Series [2] has as its target T1, Transient receptor potential cation channel subfamily V member 4. Nature of the series: Antagonist activity at human TRPV4.
Series [3] addresses T2, Transient receptor potential cation channel subfamily V member 1 (Homo sapiens, UniProt Q8NER1). Nature of the series: Antagonist activity at human TRPV1.
The target in series [4] is Voltage-gated inwardly rectifying potassium channel KCNH2 (Homo sapiens, UniProt Q12809). Briefly: Inhibition of dofetilide binding to human ERG.
A short description of series [5]: Clearance in Sprague-Dawley rat at 1 mg/kg, iv. The settings on record: in vivo. The series is classed as ADME, organism-based. Details: dose 1 mg/kg, route intravenous.
Series [6] relates to Rattus norvegicus. Nature of the series: fCmax in Sprague-Dawley rat at 2 mg/kg, po. The series is classed as ADME, organism-based. Details: dose 2 mg/kg, route oral. The settings on record: in vivo.
Series [7] has as its target T1, Transient receptor potential cation channel subfamily V member 4. Nature of the series: Agonist activity at human TRPV4 expressed in CHOK1 cells assessed as changes in intracellular calcium level measured for 5 mins by FLIPR assay. The series is classed as cell-based, CHO-K1.
Series [8] deals with Transient receptor potential cation channel subfamily M member 8 (Homo sapiens, UniProt Q7Z2W7). Nature of the series: Antagonist activity at human TRPM8.
For series [9], the target named is T2, Transient receptor potential cation channel subfamily V member 1. Briefly: Agonist activity at human TRPV1.
A short description of series [10]: Lipophilicity, log D of the compound. Format: physicochemical. As to conditions: octanol/water.
Series [11] deals with CYP2C9 (Homo sapiens, UniProt P11712). Briefly: Inhibition of CYP2C9 (unknown origin) at 3 uM relative to control. The series is classed as ADME.
A short description of series [12]: Clearance in rat liver microsomes. Format: ADME. The settings on record: read-out: CLH. On the technique in general: Liver microsomes are vesicles of endoplasmic reticulum, rich in cytochrome P450 enzymes.
Series [13] is described as follows: Half life in Sprague-Dawley rat at 1 mg/kg, iv. Format: ADME, organism-based. The settings on record: in vivo. Details: dose 1 mg/kg, route intravenous.
The target of series [14] is T3, Transient receptor potential cation channel subfamily V member 4 (Rattus norvegicus, UniProt Q9ERZ8). Nature of the series: Agonist activity at rat TRPV4 expressed in CHOK1 cells assessed as changes in intracellular calcium level measured for 5 mins by FLIPR assay. Format: cell-based, CHO-K1.
Series [15] in a line: Tmax in Sprague-Dawley rat at 2 mg/kg, po. The series is classed as ADME, organism-based. Details: dose 2 mg/kg, route oral. The settings on record: in vivo.
A short description of series [16]: Oral bioavailability in Sprague-Dawley rat at 2 mg/kg. Format: ADME, organism-based. As to conditions: in vivo.
Series [17] deals with Rattus norvegicus. Briefly: Unbound clearance in Sprague-Dawley rat at 1 mg/kg, iv. The series is classed as ADME, organism-based. Details: dose 1 mg/kg, route intravenous. As to conditions: in vivo.
Series [18] addresses T4, CYP1A2 (Homo sapiens, UniProt P05177).
T4 sequence (P05177 whole entry): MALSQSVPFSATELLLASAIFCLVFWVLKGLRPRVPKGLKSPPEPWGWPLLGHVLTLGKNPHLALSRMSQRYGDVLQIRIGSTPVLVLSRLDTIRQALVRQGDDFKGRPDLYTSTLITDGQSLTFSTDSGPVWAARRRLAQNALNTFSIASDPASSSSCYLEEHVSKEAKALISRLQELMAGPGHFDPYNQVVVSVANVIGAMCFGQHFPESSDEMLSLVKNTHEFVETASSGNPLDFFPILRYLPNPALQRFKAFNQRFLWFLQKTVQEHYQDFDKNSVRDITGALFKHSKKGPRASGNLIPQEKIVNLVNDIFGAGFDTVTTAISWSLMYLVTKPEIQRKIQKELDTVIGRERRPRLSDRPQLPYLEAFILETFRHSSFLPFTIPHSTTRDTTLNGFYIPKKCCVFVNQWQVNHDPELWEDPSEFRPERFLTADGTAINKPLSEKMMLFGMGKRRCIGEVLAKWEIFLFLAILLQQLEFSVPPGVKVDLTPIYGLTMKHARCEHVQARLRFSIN
Nature of the series: Inhibition of CYP1A2 (unknown origin) at 3 uM relative to control. The series is classed as ADME.

Series [19] addresses CYP3A4 (Homo sapiens, UniProt P08684). Nature of the series: Inhibition of CYP3A4 (unknown origin) at 3 uM relative to control. Format: ADME.
In series [20] the target is T3, Transient receptor potential cation channel subfamily V member 4. Briefly: Antagonist activity at rat TRPV4 expressed in CHOK1 cells assessed as inhibition of PF-04674114/GSK1016790A-induced changes in intracellular calcium level measured for 5 mins by FLIPR assay. Format: cell-based, CHO-K1.
For series [21], the target named is T5, Transient receptor potential cation channel subfamily A member 1 (Homo sapiens, UniProt O75762). Nature of the series: Antagonist activity at human TRPA1.
Series [22] addresses CYP2D6 (Homo sapiens, UniProt P10635). Briefly: Inhibition of CYP2D6 (unknown origin) at 3 uM relative to control. The series is classed as ADME.
Series [23] in a line: Volume of distribution at steady state in Sprague-Dawley rat at 1 mg/kg, iv. The series is classed as ADME, organism-based. Details: dose 1 mg/kg, route intravenous. As to conditions: in vivo, read-out: Vdss.
Series [24] in a line: Clearance in human liver microsomes. The series is classed as ADME. The settings on record: read-out: CLH.
Series [25] deals with T5, Transient receptor potential cation channel subfamily A member 1. Nature of the series: Agonist activity at human TRPA1.

The term IC50 denotes the midpoint of a concentration-inhibition curve. In general, clearance refers to the volume of plasma or blood freed of the substance per unit of time. For orientation: EC50 means the concentration needed to bring the measured effect to its halfway point. The term logD denotes lipophilicity at a set pH, counting ionised and neutral species. Read a low logD as lower lipophilicity. By inhibition is commonly meant the change of the read-out against control, counted positive when it falls. What is called half-life is the time in which the quantity being followed falls by half. High values mean slow decline, low ones rapid decline. By Tmax is commonly meant the time from dosing to the highest level. In general, bioavailability refers to dose-corrected exposure relative to a reference, in per cent. Lower therefore signals little systemic uptake.

Structures are written as SMILES.

T3 sequence (Q9ERZ8 whole entry): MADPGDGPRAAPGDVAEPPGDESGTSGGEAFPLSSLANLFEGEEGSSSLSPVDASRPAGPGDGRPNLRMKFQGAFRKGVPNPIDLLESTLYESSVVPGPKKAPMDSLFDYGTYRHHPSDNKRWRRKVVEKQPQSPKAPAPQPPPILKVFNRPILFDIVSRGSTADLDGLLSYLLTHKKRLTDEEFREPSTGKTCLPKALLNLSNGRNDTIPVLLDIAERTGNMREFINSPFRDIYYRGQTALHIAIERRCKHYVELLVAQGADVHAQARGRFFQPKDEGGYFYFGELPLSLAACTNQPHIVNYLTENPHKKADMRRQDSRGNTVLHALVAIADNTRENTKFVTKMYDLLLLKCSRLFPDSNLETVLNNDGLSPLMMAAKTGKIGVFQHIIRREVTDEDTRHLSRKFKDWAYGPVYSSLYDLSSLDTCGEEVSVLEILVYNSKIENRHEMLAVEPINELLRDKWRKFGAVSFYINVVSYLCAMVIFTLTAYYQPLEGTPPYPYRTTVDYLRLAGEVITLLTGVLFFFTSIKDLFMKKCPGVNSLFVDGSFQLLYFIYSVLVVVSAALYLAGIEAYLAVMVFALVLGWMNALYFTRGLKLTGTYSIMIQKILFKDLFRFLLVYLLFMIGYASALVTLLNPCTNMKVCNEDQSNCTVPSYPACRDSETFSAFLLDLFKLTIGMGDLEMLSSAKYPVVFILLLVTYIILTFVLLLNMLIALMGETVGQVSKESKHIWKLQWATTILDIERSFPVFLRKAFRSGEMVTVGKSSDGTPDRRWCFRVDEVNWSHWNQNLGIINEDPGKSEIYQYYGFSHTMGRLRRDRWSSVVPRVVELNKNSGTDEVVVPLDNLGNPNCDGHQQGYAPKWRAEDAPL
T1 sequence (Q9HBA0 whole entry): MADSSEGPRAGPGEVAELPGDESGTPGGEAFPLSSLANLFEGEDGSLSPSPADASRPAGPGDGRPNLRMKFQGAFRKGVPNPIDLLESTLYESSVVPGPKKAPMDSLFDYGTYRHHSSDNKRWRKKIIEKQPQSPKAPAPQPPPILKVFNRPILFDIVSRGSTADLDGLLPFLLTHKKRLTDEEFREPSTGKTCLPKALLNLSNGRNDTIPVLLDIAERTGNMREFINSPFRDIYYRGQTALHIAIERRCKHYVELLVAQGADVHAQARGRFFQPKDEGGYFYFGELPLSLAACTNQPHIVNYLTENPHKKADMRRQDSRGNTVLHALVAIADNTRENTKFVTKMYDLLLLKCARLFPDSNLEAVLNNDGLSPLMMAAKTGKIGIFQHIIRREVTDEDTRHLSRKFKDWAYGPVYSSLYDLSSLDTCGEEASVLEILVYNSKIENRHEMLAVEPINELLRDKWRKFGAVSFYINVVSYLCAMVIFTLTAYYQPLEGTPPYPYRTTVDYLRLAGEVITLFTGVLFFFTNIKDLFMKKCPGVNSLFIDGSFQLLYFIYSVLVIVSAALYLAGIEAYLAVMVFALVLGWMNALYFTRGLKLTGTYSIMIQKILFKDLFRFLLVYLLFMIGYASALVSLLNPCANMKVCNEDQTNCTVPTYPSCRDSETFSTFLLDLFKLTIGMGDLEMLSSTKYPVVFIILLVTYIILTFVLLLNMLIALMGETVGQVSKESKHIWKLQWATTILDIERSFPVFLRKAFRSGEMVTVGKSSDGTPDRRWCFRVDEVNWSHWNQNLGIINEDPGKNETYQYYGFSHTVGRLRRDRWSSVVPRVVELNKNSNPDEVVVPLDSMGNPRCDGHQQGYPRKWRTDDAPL
T5 sequence (O75762 whole entry): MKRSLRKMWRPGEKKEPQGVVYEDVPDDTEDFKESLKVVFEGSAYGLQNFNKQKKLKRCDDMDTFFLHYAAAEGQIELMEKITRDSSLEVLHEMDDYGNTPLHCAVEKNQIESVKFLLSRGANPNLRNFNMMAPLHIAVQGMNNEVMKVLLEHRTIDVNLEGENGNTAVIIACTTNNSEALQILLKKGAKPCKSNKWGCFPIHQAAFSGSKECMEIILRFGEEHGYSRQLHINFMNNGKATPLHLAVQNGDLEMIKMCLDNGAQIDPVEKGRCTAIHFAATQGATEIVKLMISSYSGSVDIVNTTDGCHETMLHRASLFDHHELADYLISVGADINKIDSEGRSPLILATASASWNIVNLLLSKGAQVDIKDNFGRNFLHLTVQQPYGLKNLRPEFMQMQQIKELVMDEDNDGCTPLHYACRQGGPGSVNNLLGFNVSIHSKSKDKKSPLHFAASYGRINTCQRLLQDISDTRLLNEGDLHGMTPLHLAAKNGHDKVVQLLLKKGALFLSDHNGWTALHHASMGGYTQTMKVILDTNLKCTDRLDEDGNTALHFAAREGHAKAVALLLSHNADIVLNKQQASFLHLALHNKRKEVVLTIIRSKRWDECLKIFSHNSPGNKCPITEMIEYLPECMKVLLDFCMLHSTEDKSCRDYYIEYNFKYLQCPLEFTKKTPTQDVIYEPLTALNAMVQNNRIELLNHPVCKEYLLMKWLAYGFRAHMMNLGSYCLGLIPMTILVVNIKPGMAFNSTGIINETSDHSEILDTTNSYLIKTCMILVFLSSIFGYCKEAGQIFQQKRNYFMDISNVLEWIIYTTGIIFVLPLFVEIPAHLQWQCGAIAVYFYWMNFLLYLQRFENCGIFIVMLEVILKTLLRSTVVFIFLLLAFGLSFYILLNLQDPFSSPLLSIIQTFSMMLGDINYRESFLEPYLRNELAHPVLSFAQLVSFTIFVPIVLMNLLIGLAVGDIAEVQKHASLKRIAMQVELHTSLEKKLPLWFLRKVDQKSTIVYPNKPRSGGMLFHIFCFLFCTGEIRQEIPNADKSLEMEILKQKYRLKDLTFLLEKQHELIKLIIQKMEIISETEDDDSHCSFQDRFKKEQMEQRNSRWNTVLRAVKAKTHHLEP
T2 sequence (Q8NER1 whole entry): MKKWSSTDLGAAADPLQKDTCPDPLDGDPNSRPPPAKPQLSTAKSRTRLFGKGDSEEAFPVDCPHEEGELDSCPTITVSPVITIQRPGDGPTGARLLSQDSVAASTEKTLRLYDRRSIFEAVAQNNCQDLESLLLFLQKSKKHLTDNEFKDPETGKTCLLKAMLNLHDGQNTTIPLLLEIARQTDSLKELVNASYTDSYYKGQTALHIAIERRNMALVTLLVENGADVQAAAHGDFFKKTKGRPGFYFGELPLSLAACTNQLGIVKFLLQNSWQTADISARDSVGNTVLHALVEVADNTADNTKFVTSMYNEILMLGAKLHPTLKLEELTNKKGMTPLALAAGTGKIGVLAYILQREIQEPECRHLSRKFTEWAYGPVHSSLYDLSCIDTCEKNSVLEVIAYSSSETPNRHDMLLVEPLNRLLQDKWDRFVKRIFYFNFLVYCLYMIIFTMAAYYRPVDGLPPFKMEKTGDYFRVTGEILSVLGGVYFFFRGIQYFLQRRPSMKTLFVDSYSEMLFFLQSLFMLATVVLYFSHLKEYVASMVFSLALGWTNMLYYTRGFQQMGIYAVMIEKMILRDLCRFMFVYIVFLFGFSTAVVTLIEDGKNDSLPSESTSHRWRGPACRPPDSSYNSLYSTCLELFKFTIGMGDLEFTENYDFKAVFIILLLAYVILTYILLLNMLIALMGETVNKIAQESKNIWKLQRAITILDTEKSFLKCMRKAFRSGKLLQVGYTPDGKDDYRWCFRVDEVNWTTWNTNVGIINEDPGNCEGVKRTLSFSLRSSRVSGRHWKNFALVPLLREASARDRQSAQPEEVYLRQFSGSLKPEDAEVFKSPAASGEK
Sequence of Transient receptor potential cation channel subfamily M member 8 (Q7Z2W7 whole entry): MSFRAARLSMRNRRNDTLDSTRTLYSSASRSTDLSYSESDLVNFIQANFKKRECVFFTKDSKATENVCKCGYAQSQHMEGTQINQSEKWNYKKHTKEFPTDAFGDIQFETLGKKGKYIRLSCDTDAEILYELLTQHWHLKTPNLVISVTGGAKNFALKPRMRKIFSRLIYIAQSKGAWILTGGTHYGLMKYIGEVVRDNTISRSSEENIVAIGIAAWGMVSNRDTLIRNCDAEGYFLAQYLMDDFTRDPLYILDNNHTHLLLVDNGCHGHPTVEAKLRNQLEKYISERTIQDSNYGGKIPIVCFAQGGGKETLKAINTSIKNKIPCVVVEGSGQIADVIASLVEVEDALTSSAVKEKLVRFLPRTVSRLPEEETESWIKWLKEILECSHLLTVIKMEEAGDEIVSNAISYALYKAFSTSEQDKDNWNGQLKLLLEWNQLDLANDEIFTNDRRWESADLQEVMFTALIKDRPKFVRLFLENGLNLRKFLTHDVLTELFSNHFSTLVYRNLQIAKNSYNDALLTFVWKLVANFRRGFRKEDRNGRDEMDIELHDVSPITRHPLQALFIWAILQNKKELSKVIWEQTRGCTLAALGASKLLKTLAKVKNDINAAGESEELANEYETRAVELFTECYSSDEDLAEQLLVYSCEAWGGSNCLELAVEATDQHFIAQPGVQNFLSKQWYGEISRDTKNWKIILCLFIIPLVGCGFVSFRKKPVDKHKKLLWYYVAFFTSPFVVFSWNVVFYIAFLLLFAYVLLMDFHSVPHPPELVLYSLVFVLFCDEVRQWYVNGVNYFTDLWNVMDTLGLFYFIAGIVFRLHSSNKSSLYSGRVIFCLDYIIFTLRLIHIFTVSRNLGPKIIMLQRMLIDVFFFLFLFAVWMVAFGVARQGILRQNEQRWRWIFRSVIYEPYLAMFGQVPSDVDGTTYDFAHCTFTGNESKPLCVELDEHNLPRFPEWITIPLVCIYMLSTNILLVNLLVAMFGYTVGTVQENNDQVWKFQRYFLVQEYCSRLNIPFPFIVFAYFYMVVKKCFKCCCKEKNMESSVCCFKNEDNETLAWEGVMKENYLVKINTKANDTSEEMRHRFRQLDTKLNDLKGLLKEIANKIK

As to `N#Cc1ccc(OCC2(O)CN(S(=O)(=O)c3ccc(Cl)cc3C#N)C2)cc1Cl`, the IC50 in [1] is 0.0036 µM.
On the same count and under the same terms, with `N#Cc1ccc(OCC2(O)CN(S(=O)(=O)c3ccc(Cl)cc3C#N)C2)cc1F` the figure was 0.0034 µM.
As to `O=S(=O)(c1ccc(Cl)cc1Cl)N1CCC(O)(CSc2ccncc2)CC1`, the IC50 in series [2] was 2.2 µM.
On to `N#Cc1ccc(OCC2(O)CN(S(=O)(=O)c3ccc(Cl)cc3Cl)C2)cc1F`, for which the concentration for half-maximal inhibition (IC50) in series [3] was > 16 µM; in series [4], 9.67 µM; in series [8] it was 9.58 µM; in series [20], 0.0341 µM; in series [21], > 12.5 µM; in series [1] it was 0.0038 µM. The compound further returned a clearance in series [5] of 1.41 L/h/kg. The compound also displayed a fCmax in series [6] of 16 nM. Moreover, the EC50 is > 1 µM in series [7], > 20 µM in series [9], > 1 µM in series [14] and > 12.5 µM in series [25]. Further, the logD in [10] turned out to be 3.2. Also, the inhibition at 3 µM in series [11], in [18], in series [19] and in [22] was < 20% throughout. Besides, the values for the microsomal CLint in [12] and in [24] were 87 µL/min/mg and < 8.1 µL/min/mg, respectively. Besides, the half-life in [13] was 2.2 h. Moreover, the time to peak (Tmax) in series [15] was 0.75 h. This compound showed a bioavailability in series [16] of 73%. This compound returned a CL free in [17] of 45.4 L/h/kg. For the same compound, the Vd in [23] was determined as 4.3 L/kg.
As for `N#Cc1ccc(S(=O)(=O)N2CC(O)(COc3ccc(C#N)c(Cl)c3)C2)c(Cl)c1`, the IC50 in series [1] was 0.004 µM.
With `N#Cc1ccc(OCC2(O)CCN(S(=O)(=O)c3ccc(Cl)cc3Cl)CC2)cc1`, the IC50 in series [3] was > 3.9 µM; in [8] it was 4.8 µM; in series [20], 1.15 µM; in series [21], > 12.5 µM; in [1], 0.0497 µM. For the same compound, the EC50 in [7] was > 1 µM; in series [9], > 20 µM; in [14], > 1 µM; in series [25], > 12.5 µM.
On to `N#Cc1ccc(S(=O)(=O)N2CCC(O)(COc3ccc(C#N)c(F)c3)CC2)c(C#N)c1`, for which the IC50 in series [1] is 0.0505 µM.
Same read-out and setting: with `N#Cc1ccc(S(=O)(=O)N2CCC(O)(COc3ccc(C#N)c(F)c3)CC2)c(Cl)c1` the figure was 0.0491 µM; with `N#Cc1ccc(OCC2(O)CCN(S(=O)(=O)c3ccc(Cl)cc3Cl)CC2)cc1F`, 0.0129 µM.
